Converted amounts (≈) assume the structure as drawn.

In one series the test system is Cholesterinbiosynthese. The experiment in a line: Inhibition of cholesterol biosynthesis from [14C] sodium acetate in HEP-G2 cell monolayers. In kind it is cell-based. As to conditions: Homo sapiens, HepG2, HEP-G2-Zellen, 1 h preincubation, 3 h with [14C] sodium acetate, read-out: Cholesterin in Prozent der Kontrolle; for activity at 0.01 µM: Konzentration 10⁻⁸ M. An excerpt:
Monolayer von HEP-G2-Zellen in lipoproteinfreiem Nährmedium werden mit entsprechenden Konzentrationen der zu prüfenden Substanzen aus den Beispielen 1, 3, 4, 5, 6, 8 und 15 eine Stunde vorinkubiert. Nach Zugabe der ¹⁴C-markierten Biosynthesevorstufe [¹⁴C]Natriumacetat wird die Inkubation für 3 Stunden fortgesetzt. Danach wird ein Teil der Zellen alkalisch verseift, bei vorheriger Zugabe eines internen Standards von ³H-Cholesterin. Die Lipide der verseiften Zellen werden mit einem Gemisch aus Chloroform-Methanol extrahiert. Dieses Lipidgemisch wird nach Zusatz von Trägercholesterin präparativ dünnschichtchromatographisch aufgetrennt, die Cholesterinbande nach Anfärbung isoliert und die aus dem ¹⁴C-Precursor gebildete Menge ¹⁴C-Cholesterin szintigraphisch bestimmt. In einem aliquoten Teil der Zellen wurde Zellprotein bestimmt, sodaß die in der Zelleinheit pro mg Zellprotein aus ¹⁴C-Vorläufer gebildete Menge ¹⁴C-Cholesterin berechnet werden kann. Zum Vergleich für die Hemmwirkung eines zugesetzten Prüfpräparates dient die Kontrolle, so daß direkt die Hemmung der Cholesterinbiosynthese bei einer bestimmten molaren Konzentration des Prüfpräparates im Medium angegeben werden kann. In aliquoten Anteilen der Zellkultur wird die Intaktheit der Zellkultur und die fehlende Zellschädigung durch Präparateeinwirkung morphologisch (Lichtmikroskopie) beurteilt und biochemisch durch Bestimmung der Laktat-Dehydrogenase Ausschüttung im Inkubationsmedium gemessen. Als Standardpräparat wurde ®Lovastatin (Merck-Sharp-Dohm) benutzt.

In the next series the test system is Rhinovirus II. The experiment in a line: Antiviral activity in cell culture (CPE, neutral red uptake). In kind it is cell-based. As to conditions: Enterovirus; Rhino. II; HeLa or Vero cells, 72 h; MHK = concentration at which about 50 % of the cells survived the infection.
The next series has as its system Herpes I. Described as above. It is filed as cell-based. The note with it: HeLa or Vero cells, 72 h, MHK = concentration at which about 50 % of the cells survived the infection.
A further series is described as follows: in vitro. The note with it: hela or vero cells.
A further series deals with Vaccina. The experiment in a line: microbe, parasite or virus in culture. It is filed as cell-based. The note with it: 72 h, read-out: MHK.
Another series relates to Influenza A. In words: microbe, parasite or virus in culture. The note with it: 72 h, read-out: MHK. In kind it is cell-based.
Another series has as its system Herpes II. The experiment in a line: Antiviral activity in cell culture (CPE, neutral red uptake). In kind it is cell-based. The note with it: HeLa or Vero cells, 72 h, MHK = concentration at which about 50 % of the cells survived the infection.

Consider `CC1CC(OC=O)C=CC(O)C(O)CC(=O)O1` (stereo not shown) [Verbindung 8, 4,5-Dihydroxy-8-formyl-oxy-10-methyl-1-oxa-6-cyclodecen-2-on], for which, in the series with Cholesterinbiosynthese, the activity at 0.01 µM came out at 67%.
On the same count and under the same terms, the figure for `CC[C@H](C)C(=O)O[C@H]1C[C@@H](C)C=C2C=C[C@H](C)[C@H](CC[C@@H]3C[C@@H](O)CC(=O)O3)[C@H]21` [Lovastatin, reference compound] is 55%.
The same measure, in the same setting: for `CC1CC(O[C@H]2O[C@H](COCc3ccccc3)[C@@H](OCc3ccccc3)[C@H](OCc3ccccc3)[C@H]2OCc2ccccc2)CCC2OC(C)(C)OC2CC(=O)O1` (stereo partly drawn) [Verbindung 1, 4,5-Dihydroxy-O-isopropyliden-10-methyl-1-oxa-8(2,3,4,6-tetra-O-benzyl-α-D-glucopyranosyl-oxy)-2-cyclodecanon] the value was 41%.
On to `CC(=O)OC1/C=C/C(OC(C)=O)C(OC(C)=O)CC(=O)OC(C)C1` (stereo not shown) [Verbindung 6, 10-Methyl-1-oxa-4,5,8-triacetyloxy-6-cyclodecen-2-on], for which the EC50 in the series on Rhinovirus II is 44.4 µg/mL (≈ 130 µM); in the series with Herpes I, 0.55 µg/mL (≈ 1.61 µM); in the series on Vaccina, 0.49 µg/mL (≈ 1.43 µM); in the series with Influenza A, 14 µg/mL (≈ 40.9 µM); in the series on Herpes II, 0.55 µg/mL (≈ 1.61 µM). The compound further had an MNTC at 72 h in the series “in vitro” of 133 µg/mL. In addition, the activity at 10 µM in the series with Cholesterinbiosynthese (Konzentration 10⁻⁵ M) was determined as 32%. Besides, in the series with Cholesterinbiosynthese (Konzentration 10⁻⁷ M), the activity at 0.1 µM came to 30%.
Take `CC1CC(O)CCC(O)C(O)CC(=O)O1` (stereo not shown) [Verbindung 15, 10-Methyl-1-oxa-4,5,8-trihydroxy-cyclodecan-2-on]: the activity at 0.01 µM with Cholesterinbiosynthese was found to be 73%.
Same read-out and setting: the figure for `CC(=O)OC1CCC(O)C(O)CC(=O)OC(C)C1` (stereo not shown) [Verbindung 4, 8-Acetyloxy-4,5-dihydroxy-10-methyl-1-oxa-cyclodecan-2-on] is 45%.
As for `COC1C=CC(OC)C(OC)CC(=O)OC(C)C1` (stereo not shown) [Verbindung 3, 10-Methyl-4,5,8-trimethoxy-1-oxa-6-cyclodecen-2-on], in the series with Cholesterinbiosynthese (Konzentration 10⁻⁶ M), the activity at 1 µM came out at 28%. Besides, the activity at 0.01 µM in the series on Cholesterinbiosynthese came out at 33%.
For `CC1CC(O)C2OC2C(O)C(O)CC(=O)O1` (stereo not shown) [Verbindung 5, 2-Carbonyl-10-methyl-1-oxa-4,5,8-trihydroxy-6-cyclodecenoxid], the activity at 0.01 µM with Cholesterinbiosynthese amounted to 33%.

For the origin of these results see EP0516015A1, “Substituted decarestrictines, methods for their preparation and use thereof” (HOECHST AKTIENGESELLSCHAFT, priority 1991, dated 1992).
